Laboratory results from ChEMBL document CHEMBL4033668, “Inhibitors of cytochrome P450 (CYP) 1B1” (Eur J Med Chem, 2017).

What was measured:
[1] = molecular target: T1, Cytochrome P450 1B1 (Homo sapiens, UniProt Q16678); assay: Competitive inhibition of CYP1B1 (unknown origin) expressed in yeast microsomes using (-)benzo[a]pyrene-7R-trans-7,8-dihyrodiol (B[a]P-7,8-diol) as substrate
T1 sequence (Q16678 whole entry): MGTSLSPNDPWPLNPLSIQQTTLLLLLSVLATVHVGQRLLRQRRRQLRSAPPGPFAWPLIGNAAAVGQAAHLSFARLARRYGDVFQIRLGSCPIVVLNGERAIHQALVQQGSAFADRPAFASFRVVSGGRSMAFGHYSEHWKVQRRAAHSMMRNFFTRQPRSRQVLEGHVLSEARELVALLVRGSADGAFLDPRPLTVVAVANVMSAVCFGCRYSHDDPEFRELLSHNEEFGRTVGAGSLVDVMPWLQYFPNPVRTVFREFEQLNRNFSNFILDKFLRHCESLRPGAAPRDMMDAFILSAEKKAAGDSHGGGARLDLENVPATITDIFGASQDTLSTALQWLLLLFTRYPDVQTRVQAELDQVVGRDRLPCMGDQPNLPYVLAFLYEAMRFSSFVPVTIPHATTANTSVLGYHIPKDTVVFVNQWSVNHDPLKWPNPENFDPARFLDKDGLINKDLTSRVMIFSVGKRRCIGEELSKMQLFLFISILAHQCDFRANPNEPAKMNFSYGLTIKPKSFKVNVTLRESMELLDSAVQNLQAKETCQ

[2] = molecular target: T2, Cytochrome P450 1A1 (Homo sapiens, UniProt P04798); assay: Inhibition of […] CYP1A1 expressed in Escherichia coli DH5alpha coexpressing NADPH-P450 reductase using 7-ethoxyresorufin O-deethylation as substrate in presence of NADPH by UV absorbance analysis; assay type: ADME
T2 sequence (P04798 whole entry): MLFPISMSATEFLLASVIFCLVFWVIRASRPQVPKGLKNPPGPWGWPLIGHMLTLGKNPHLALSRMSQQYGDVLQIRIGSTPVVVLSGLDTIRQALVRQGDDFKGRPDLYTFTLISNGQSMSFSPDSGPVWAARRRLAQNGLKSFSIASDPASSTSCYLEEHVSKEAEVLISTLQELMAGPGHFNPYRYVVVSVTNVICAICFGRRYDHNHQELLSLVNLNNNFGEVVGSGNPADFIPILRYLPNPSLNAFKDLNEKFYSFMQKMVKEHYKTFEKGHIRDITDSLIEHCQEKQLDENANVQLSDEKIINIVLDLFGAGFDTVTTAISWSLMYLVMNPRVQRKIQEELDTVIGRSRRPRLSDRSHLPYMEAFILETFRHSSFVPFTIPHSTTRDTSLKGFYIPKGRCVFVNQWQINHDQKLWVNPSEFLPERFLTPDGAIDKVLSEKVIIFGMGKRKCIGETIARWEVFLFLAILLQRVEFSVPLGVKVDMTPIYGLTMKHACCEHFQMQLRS

[3] = molecular target: T1, Cytochrome P450 1B1; assay: Inhibition of […] CYP1B1 expressed in Escherichia coli DH5alpha coexpressing NADPH-P450 reductase using 7-ethoxyresorufin O-deethylation as substrate in presence of NADPH by UV absorbance analysis
[4] = molecular target: T3, Cytochrome P450 1A2 (Homo sapiens, UniProt P05177); assay: Inhibition of […] CYP1A2 expressed in Escherichia coli DH5alpha coexpressing NADPH-P450 reductase using 7-ethoxyresorufin O-deethylation as substrate in presence of NADPH by UV absorbance analysis; assay type: ADME
T3 sequence (P05177 whole entry): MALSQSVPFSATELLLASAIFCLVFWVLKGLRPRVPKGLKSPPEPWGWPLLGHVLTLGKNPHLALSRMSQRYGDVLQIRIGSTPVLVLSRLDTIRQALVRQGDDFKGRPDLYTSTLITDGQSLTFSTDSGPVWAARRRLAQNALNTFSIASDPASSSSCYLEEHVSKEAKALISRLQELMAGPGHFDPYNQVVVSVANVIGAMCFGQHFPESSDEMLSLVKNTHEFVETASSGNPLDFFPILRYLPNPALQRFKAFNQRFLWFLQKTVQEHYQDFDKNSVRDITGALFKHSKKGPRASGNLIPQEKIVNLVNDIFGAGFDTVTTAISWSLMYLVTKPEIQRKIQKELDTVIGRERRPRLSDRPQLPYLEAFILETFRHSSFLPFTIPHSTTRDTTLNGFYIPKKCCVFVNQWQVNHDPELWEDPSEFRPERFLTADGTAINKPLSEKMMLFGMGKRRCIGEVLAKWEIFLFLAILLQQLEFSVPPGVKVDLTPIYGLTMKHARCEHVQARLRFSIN

[5] = molecular target: T1, Cytochrome P450 1B1; assay: Inhibition of human CYP1B1 expressed in Escherichia coli DH5alpha coexpressing human NADPH P450 reductase using 7-ethoxyresorufin as substrate in presence of NADP+ by spectrofluorometeric analysis
[6] = molecular target: T1, Cytochrome P450 1B1; assay: Inhibition of CYP1B1 in […] recombinant human cytochrome P450 oxidoreductase using 7-ethoxyresorufin as substrate after 3 mins in presence of NADP+ by fluorescence assay
[7] = molecular target: T3, Cytochrome P450 1A2; assay: Inhibition of CYP1A2 (unknown origin) expressed in Escherichia coli DH5alpha coexpressing human NADPH-P450 reductase using 7-Ethoxyresorufin as substrate up to 6 mins in presence of NADP+ by spectrofluorometric analysis; assay type: ADME
[8] = molecular target: T2, Cytochrome P450 1A1; assay: Inhibition of CYP1A1 (unknown origin) expressed in Escherichia coli DH5alpha coexpressing human NADPH-P450 reductase using 7-Ethoxyresorufin as substrate up to 6 mins in presence of NADP+ by spectrofluorometric analysis; assay type: ADME
[9] = molecular target: T1, Cytochrome P450 1B1; assay: Inhibition of CYP1B1 (unknown origin) expressed in Escherichia coli DH5alpha coexpressing human NADPH-P450 reductase using 7-Ethoxyresorufin as substrate up to 6 mins in presence of NADP+ by spectrofluorometric analysis
[10] = molecular target: T2, Cytochrome P450 1A1; assay: Inhibition of recombinant CYP1A1 (unknown origin) expressed in Escherichia coli DH5alphaF'Iq coexpressing human NADPH-P450 reductase using E2-d4 as substrate after 10 mins in presence of NADP+; assay type: ADME
[11] = molecular target: T1, Cytochrome P450 1B1; assay: Inhibition of recombinant CYP1B1 (unknown origin) expressed in Escherichia coli DH5alphaF'Iq coexpressing human NADPH-P450 reductase using E2-d4 as substrate after 10 mins in presence of NADP+
[12] = molecular target: T1, Cytochrome P450 1B1; assay: Inhibition of human CYP1B1 expressed in Escherichia coli DH5alpha coexpressing human NADPH-P450 reductase using 4-estradiol as substrate in presence of NADP+ by HPLC analysis
[13] = molecular target: T1, Cytochrome P450 1B1; assay: Inhibition of recombinant human CYP1B1 expressed in Escherichia coli coexpressing human NADPH-cytochrome P450 reductase using 7-ethoxyresorufin as substrate by fluorescence spectrophotometric analysis
[14] = molecular target: T1, Cytochrome P450 1B1; assay: Inhibition of human CYP1B1 expressed in Escherichia coli DH5alpha coexpressing human NADPH P450 reductase using 7-ethoxyresorufin as substrate in presence of NADP+ by fluorimetric analysis
[15] = molecular target: T4, CYP1B1 (Homo sapiens, UniProt Q16678); assay: (§1) Inhibition of CYP1B1 (unknown origin) expressed in Escherichia coli DH5alpha coexpressing human NADPH P450 reductase using 7-ethoxyresorufin as substrate after 2 to 6 mins in presence of NADPH by double reciprocal plot analysis; details: human, probe 7-ethoxyresorufin
T4 sequence (Q16678 whole entry): T1 sequence (Q16678 whole entry)

[16] = molecular target: T1, Cytochrome P450 1B1; assay: as §1
[17] = molecular target: T1, Cytochrome P450 1B1; assay: Inhibition of recombinant CYP1B1 (unknown origin) expressed in supersomes coexpressing NADPH-CYP reductase using 7-ethoxyresorufin as substrate after 15 mins in presence of NADP+ by fluorescence spectrophotometric analysis
[18] = molecular target: T1, Cytochrome P450 1B1; assay: Inhibition of recombinant CYP1B1 (unknown origin) expressed in supersomes coexpressing NADPH-CYP reductase using 7-ethoxyresorufin as substrate after 15 mins in presence of NADP+ by Lineweaver-Burk plot analysis
[19] = molecular target: T2, Cytochrome P450 1A1; assay: Competitive inhibition of […] CYP1A1 expressed in supersomes coexpressing NADPH-CYP reductase using 7-Ethoxyresorufin as substrate measured every 5 mins for 30 mins in presence of NADPH by fluorescence assay; assay type: ADME; details: read-out: Ki(app)

## CC(C)=CCOc1c2ccoc2cc2oc(=O)ccc12 [ISOIMPERATORIN]
[1]
  Ki: 6000 nM

## O=c1c2ccccc2nc2n1CCc1c-2[nH]c2ccc(O)cc12
[2]
  IC50: 2560 nM
[3]
  IC50: 90 nM
[4]
  IC50: 2570 nM

## O=c1cc(-c2ccccc2)oc2cccc(O)c12 [5-HYDROXYFLAVONE]
[5]
  IC50: 210 nM

## CC(C)=CCOc1c2occc2cc2ccc(=O)oc12 [PENTOSALEN]
[1]
  Ki: 1000 nM

## COc1ccc(-c2coc3cc(O)ccc3c2=O)cc1 [FORMONONETIN]
[6]
  Ki: 3700 nM

## N#C[Se]Cc1cccc(C[Se]C#N)c1
[7]
  IC50: 200 to 1300 nM
[8]
  IC50: 100 to 450 nM
[9]
  IC50: 130 to 270 nM

## COc1cc2c(cc1O)CC[C@@H]1[C@@H]2CC[C@]2(C)[C@@H](O)CC[C@@H]12 [2-METHOXYESTRADIOL]
[10]
  Ki: 88000 nM
[11]
  Ki: 36000 nM

## COc1ccc2cc3[n+](cc2c1OC)CCc1cc(O)c(O)cc1-3
[12]
  IC50: 9900 nM

## O=C1c2ccccc2C(=O)c2c1ccc(O)c2O [ATHRAQUINONES A]
[13]
  Ki: 500 nM

## COc1cc2c(cc1O)[C@H]1CC[C@]3(C)[C@@H](O)CC[C@H]3[C@@H]1CC2
[10]
  Ki: 69000 nM
[11]
  Ki: 28000 nM

## c1ccc2c(c1)ccc1cc3c(ccc4ccccc43)cc12
[14]
  IC50: 9 nM

## CNCCC(Oc1ccc(C(F)(F)F)cc1)c1ccccc1 (stereo unspecified) [FLUOXETINE]
[9]
  IC50: 475000 nM

## COc1ccc(-c2cc(=O)c3c(O)cc(O)cc3o2)cc1OC
[5]
  IC50: 19 nM

## CC#Cc1ccc(-c2ccccc2)cc1
[15]
  kinact: 0.000667 s⁻¹
[16]
  Ki: 2300 nM

## O=c1c(O)c(-c2ccccc2)oc2ccccc12 [FLAVONOL]
[5]
  IC50: 90 nM

## COc1cccc(/C=C/c2ccc(SC)cc2)c1
[17]
  Ki: 500 nM
[18]
  Ki: 30 nM

## COc1ccc(-c2coc3cc(O)cc(O)c3c2=O)cc1 [BIOCHANIN]
[6]
  Ki: 1900 nM

## C=C(C)[C@@H]1CCC(C)=C[C@H]1c1c(O)cc(CCCCC)cc1O [CANNABIDIOL]
[19]
  Ki: 150 nM
